Measurements reported in patent publication US20260273025A1, “TREATMENT AND PREVENTION OF OSTEOPOROSIS IN HIGH BODY MASS INDEX INDIVIDUALS” (Radius Health, Inc., priority 2021, published 2026).
Entries after “also recorded” stand apart in the source; their conditions may differ.

Legend:
[1] = test system: postmenopausal osteoporotic women; experiment: ACTIVE Phase 3 trial, post hoc high BMI subgroup: nonvertebral, clinical, major osteoporotic and wrist fractures (Kaplan-Meier); assay type: in vivo, human
Description: (§1) The ACTIVE pivotal Phase 3 fracture prevention trial for the PTHrP analogue abaloparatide, Study BA058-05-003 (see ClinicalTrials.gov), was a randomized, double-blind, placebo-controlled trial in postmenopausal osteoporotic women randomized to receive daily doses of one of the following for 18 months: 80 micrograms (μg) of abaloparatide; a matching placebo; or the approved daily dose of 20 μg of teriparatide. Treatment with abaloparatide at a daily dose of 80 μg or placebo remained blinded to all parties throughout the study. Teriparatide used was a proprietary prefilled drug and device combination that could not be repackaged. Therefore, its identity could not be blinded to treating physicians and patients once use began. Study medication was self-administered daily by subcutaneous injection for a maximum of 18 months. All enrolled patients also received calcium and vitamin D supplementation from the time of enrollment until the end of the treatment period. It was recommended to patients that they also continue these supplements through the one-month follow-up period.
(§2) The trial completed enrollment in March 2013 with 2,463 patients at 28 medical centers in 10 countries in the United States, Europe, Latin America, and Asia. In a post hoc analysis, a subgroup of overweight patients, patients with high BMI (≥27 kg/m^2, ≥24 kg/m^2 for Asian patients) was evaluated. The baseline characteristics of this sub-group of patients are detailed in Table 1 below.
(§3) The study enrolled otherwise healthy ambulatory women aged 49 to 86 (inclusive) who had been postmenopausal for at least five years, met the study entry criteria, and had provided written informed consent. […] All patients were to be in good general health as determined by medical history, physical examination (including vital signs), and clinical laboratory testing. This study population contained a patient population reflective of the type of severe osteoporosis patients that specialists would be expected to treat in their practices.
(§4) The study endpoints included BMD, new vertebral fractures, nonvertebral fractures (fractures excluding those of the spine, sternum, patella, digits, skull, and face and those with high trauma), any clinical fractures (all fractures causing a patient to seek medical care), and major osteoporotic fractures (fractures of the upper arm, wrist, hip, or clinical spine). New vertebral fracture compared using Fisher exact test (modified intent-to-treat [mITT] population; participants with pretreatment/postbaseline spine x-rays). Time to first incident nonvertebral, clinical, major osteoporotic, and wrist fracture assessed using Kaplan-Meier (KM) method; log-rank test (intent-to-treat [ITT] population). Change from baseline BMD evaluated for total hip, femoral neck, and lumbar spine (missing data points imputed by last observation carried forward; ITT population).

[2] = test system: postmenopausal osteoporotic women; experiment: ACTIVE Phase 3 trial, post hoc high BMI subgroup: safety, treatment-emergent adverse events; assay type: in vivo, human; conditions: for Creatine renal clearance increased, (%): human
Description: as §1, §2
Safety evaluations performed in the ACTIVE trial included physical examinations, vital signs, 12-lead electrocardiograms, or ECGs, clinical laboratory tests and monitoring, and recording of adverse events. Specific safety assessments included pre-dose and post-dose (four hours) determination of serum calcium, determination of creatinine clearance, post-dose ECG assessments at selected visits, and assessments of postural hypotension (60 minutes post-dose) at selected clinic visits.
The ACTIVE trial also evaluated several potential safety measures. The treatment-emergent adverse events (TEAEs) reported by the overweight patients are summarized below in Table 2 for groups treated with placebo, abaloparatide, and teriparatide, respectively.

[3] = test system: postmenopausal osteoporotic women; experiment: ACTIVE Phase 3 trial, post hoc high BMI subgroup: BMD percent change from baseline; assay type: in vivo, human; conditions: for BMD increase as compared to placebo: total hip, femoral neck, lumbar spine
Description: as §1, §2, §3, §4

[4] = test system: postmenopausal osteoporotic women; experiment: ACTIVE Phase 3 trial, post hoc high BMI subgroup: new vertebral fractures; assay type: in vivo, human; conditions: overweight population, 18 months; for relative risk reduction of new vertebral fractures versus placebo: abaloparatide 80 μg or teriparatide 20 μg daily subcutaneous
Description: as §1, §2, §3
as §4, with “New vertebral fracture compared using Fisher exact test (modified intent-to-treat [mITT] population; participants with pretreatment/postbaseline spine x-rays).” left out

[5] = test system: subjects treated with abaloparatide; experiment: Abaloparatide for 18 months followed by anti-resorptive therapy: fracture risk; assay type: in vivo, human; conditions: abaloparatide 18 months followed by anti-resorptive therapy (e.g., alendronate for 6 months)
[6] = test system: subjects treated with abaloparatide; experiment: Bone turnover markers PINP and CTX in treated subjects; assay type: in vivo, human
[7] = test system: ovariectomy-induced osteopenic monkeys; conditions: cited from earlier work
[8] = test system: ovariectomy-induced osteopenic rats; conditions: cited from earlier work
[9] = test system: subjects treated with abaloparatide; experiment: Trabecular bone score (TBS) in treated subjects; assay type: in vivo, human
Excerpt: TBS is also a predictor of fragility fractures of the spine and hip in postmenopausal overweight women independent of BMD and other major clinical risk factors. As such, it captures additional patients at risk of fracture that are missed by BMD alone, and together with BMD more accurately captures bone strength.

[10] = overweight population, 18 months
[11] = overweight patients, abaloparatide n = 262, teriparatide n = 281
[12] = overweight patients, 6, 12 and 18 months

## CC[C@H](C)[C@H](NC(=O)[C@H](CCC(=O)O)NC(=O)[C@H](CO)NC(=O)[C@@H](NC(=O)[C@@H](N)CO)C(C)C)C(=O)N[C@@H](CCC(N)=O)C(=O)N[C@@H](CC(C)C)C(=O)N[C@@H](CCSC)C(=O)N[C@@H](Cc1cnc[nH]1)C(=O)N[C@@H](CC(N)=O)C(=O)N[C@@H](CC(C)C)C(=O)NCC(=O)N[C@@H](CCCCN)C(=O)N[C@@H](Cc1cnc[nH]1)C(=O)N[C@@H](CC(C)C)C(=O)N[C@@H](CC(N)=O)C(=O)N[C@@H](CO)C(=O)N[C@@H](CCSC)C(=O)N[C@@H](CCC(=O)O)C(=O)N[C@@H](CCCN=C(N)N)C(=O)N[C@H](C(=O)N[C@@H](CCC(=O)O)C(=O)N[C@@H](Cc1c[nH]c2ccccc12)C(=O)N[C@@H](CC(C)C)C(=O)N[C@@H](CCCN=C(N)N)C(=O)N[C@@H](CCCCN)C(=O)N[C@@H](CCCCN)C(=O)N[C@@H](CC(C)C)C(=O)N[C@@H](CCC(N)=O)C(=O)N[C@@H](CC(=O)O)C(=O)N[C@H](C(=O)N[C@@H](Cc1cnc[nH]1)C(=O)N[C@@H](CC(N)=O)C(=O)N[C@@H](Cc1ccccc1)C(=O)O)C(C)C)C(C)C [Teriparatide, teriparatide]
[1]; [10]
  major osteoporotic fractures (MOF), reduction versus placebo (Kaplan-Meier estimated cumulative incidence): Significant reduction
  non-vertebral fractures (NVF), reduction versus placebo (Kaplan-Meier estimated cumulative incidence): Significant reduction
[2]; in vivo
  Creatine renal clearance increased, (%): (4.6) %
  Arthralgia, (%): (7.1) %
  Back pain, (%): (7.5) %
  Discontinuations, (%): (7.5) %
  Dizziness, (%): (8.2) %
  Headache, (%): (6.8) %
  Hypercalciuria, (%): (9.3) %
  Hypertension, (%): (6.4) %
  Nasopharyngitis, (%): (5.3) %
  Nausea, (%): (3.9) %
  Pain in extremity, (%): (3.6) %
  Serious TEAEs, (%): (13.9) %
  ≥1 TEAE, (%): (89.3) %
[2]; [11]
  Deaths, (%): (0.4) %
  Influenza, (%): (3.9) %
  Upper respiratory tract infection, (%): (9.6) %
  Urinary tract infection, (%): (6.8) %
[3]; overweight patients
  delay compared with the abaloparatide group to achieve the same level of BMD increase at total hip and femoral neck: about 6 months
[3]; [12]
  BMD increase as compared to placebo: significantly greater BMD increase
[4]
  new vertebral fractures, reduction vs. placebo: significant reduction
  relative risk reduction of new vertebral fractures versus placebo: 74%

## abaloparatide
[5]
  fracture risk versus placebo for 18 months followed by similar anti-resorptive therapy: significant reduction
[1]; [10]
  clinical fractures, reduction versus placebo: statistically significant reduction; also recorded: numerical reduction
  major osteoporotic fractures (MOF), reduction versus placebo (Kaplan-Meier estimated cumulative incidence): statistically significant reduction; also recorded: significant risk reduction
  non-vertebral fractures (NVF), reduction versus placebo (Kaplan-Meier estimated cumulative incidence): statistically significant reduction; also recorded: significant risk reduction
  wrist fracture, reduction versus placebo: numerical reduction
[1]; overweight population, all categories
  effect on NVF, clinical fractures, MOF and wrist fractures compared with teriparatide: significantly better than teriparatide
[1]; postmenopausal overweight women
  risk of major osteoporotic fracture and any clinical fracture, irrespective of baseline fracture probability (FRAX): significantly decrease
[6]; at 18 months
  CTX marker (bone resorption): quick return to the baseline
[6]; human, in vivo
  bone formation marker PINP: earlier increase
[2]; in vivo
  Creatine renal clearance increased, (%): (5.7) %
  Arthralgia, (%): (9.2) %
  Back pain, (%): (8.0) %
  Discontinuations, (%): (5.7) %
  Dizziness, (%): (11.1) %
  Urinary tract infection, (%): (6.9) %
  ≥1 TEAE, (%): (91.6) %
[2]; [11]
  Deaths, (%): (0.8) %
  Headache, (%): (5.0) %
  Hypercalciuria, (%): (9.5) %
  Hypertension, (%): (9.5) %
  Influenza, (%): (6.1) %
  Nasopharyngitis, (%): (5.0) %
  Nausea, (%): (6.1) %
  Pain in extremity, (%): (6.9) %
  Serious TEAEs, (%): (13.7) %
  Upper respiratory tract infection, (%): (8.8) %
[3]; at 6 months and 12 months
  lumbar spine BMD versus placebo: statistically significant increase
[3]; at 18 months
  lumbar spine BMD: non-statistically significant BMD increase
[3]; [12]
  BMD increase at total hip as compared to teriparatide: significantly greater BMD increase
  BMD increase as compared to placebo: significant improvements
[3]; overweight patients, 6 months
  BMD increase for lumbar spine as compared to teriparatide: significantly greater BMD increase
[3]; overweight patients, 12 and 18 months
  BMD increase at the femoral neck as compared to teriparatide: significantly greater BMD increase
[3]; overweight patients, 6, 12 and 18 months, listed as abaloparatide
  BMD increase as compared to placebo: significantly greater BMD increase
[3]; treated for 18 months
  BMD in total hip and femoral neck versus teriparatide or placebo: significant BMD increase
[7]
  bone loss: complete reversal of bone loss
[4]
  new vertebral fractures, reduction vs. placebo: statistically significant reduction; also recorded: significant risk reduction
  relative risk reduction of new vertebral fractures versus placebo: 81%
[8]
  bone loss: complete reversal of bone loss
[9]; daily dose of 20 μg, 40 μg or 80 μg for 12 weeks to 24 weeks
  trabecular bone score (TBS): significantly increase TBS
[9]; human, in vivo
  trabecular bone score (TBS): significant increase
